According to publication PMC11129975, “A first-in-human phase I study of TAS-117, an allosteric AKT inhibitor, in patients with advanced solid tumors” (Cancer Chemotherapy and Pharmacology, 2024):
Where two headings read alike, the source gives them in different places.

What was measured:
[1] = parameters: method as in data on file, Taiho Pharmaceutical Co., Ltd.; settings: repeated dosing; ref data on file, Taiho Pharmaceutical Co., Ltd.; cited from earlier work
[2] = parameters: method as in data on file, Taiho Pharmaceutical Co., Ltd.; settings: ref data on file, Taiho Pharmaceutical Co., Ltd., cited from earlier work
[3] = system: advanced or metastatic solid tumors; experiment: Antitumor activity, best overall response by RECIST version 1.1; assay type: in vivo, human
Procedure: The phosphorylation status of PRAS40 in the blood was measured with an electrochemiluminescence detection assay using a Meso Scale Discovery instrument (Meso Scale Diagnostics, Rockville, MD, US). For efficacy, solid tumors were assessed using Response Evaluation Criteria in Solid Tumors (RECIST; version 1.1).

[4] = system: multiple tumor cell lines derived from human cancers; parameters: method as in data on file, Taiho Pharmaceutical Co., Ltd.; settings: breast, ovarian, gastric, endometrial and myeloma lines; ref data on file, Taiho Pharmaceutical Co., Ltd.; cited from earlier work
KPL-4 = settings: oral dosing; KPL-4 (HER2 amplification, PIK3CA mutation); cited from earlier work
[5] = RMP (intermittent dosing) Level 4 (24 mg) n = 6
[6] = RMP (intermittent dosing) Level 5 (32 mg) n = 4
[7] = SAP (intermittent dosing) Cohort 1 Level 4 n = 16
[8] = SAP (intermittent dosing) Cohort 2 Level 4 n = 7
[9] = SAP (intermittent dosing) Cohort 3 Level 4 n = 20

SMILES: C[C@]1(O)C[C@@](N)(c2ccc(-c3nc4n(c3-c3ccccc3)COc3ccncc3-4)cc2)C1 [TAS-117]
- Toxicity findings [1]: dysregulation of carbohydrate metabolism and atrophic changes in the lymphatic/hematopoietic organs and adipocytes
- Highest non-severely toxic dose ([2]; 4-week repeated oral dose): 1.2 mg/kg/day
- Toxicity findings ([2]; repeated dosing): dysregulation of carbohydrate metabolism and atrophic changes in the lymphatic/hematopoietic organs and adipocytes
- Best overall response: CR ([3]; DEP (QD) Level 1 (4 mg) n = 2): 0 n (%)
- Best overall response: NE ([3]; DEP (QD) Level 1 (4 mg) n = 2): 0 n (%)
- Best overall response: Non-CR/non-PD ([3]; DEP (QD) Level 1 (4 mg) n = 2): 0 n (%)
- Best overall response: PD ([3]; DEP (QD) Level 1 (4 mg) n = 2): 2 (100.0) n (%)
- Best overall response: PR ([3]; DEP (QD) Level 1 (4 mg) n = 2): 0 n (%)
- Best overall response: SD ([3]; DEP (QD) Level 1 (4 mg) n = 2): 0 n (%)
- DCR (CR + PR + SD + non-CR/non-PD) ([3]; DEP (QD) Level 1 (4 mg) n = 2): 0 n (%)
- RR (CR + PR) ([3]; DEP (QD) Level 1 (4 mg) n = 2): 0 n (%)
- Best overall response: CR ([3]; DEP (QD) Level 2 (8 mg) n = 1): 0 n (%)
- Best overall response: NE ([3]; DEP (QD) Level 2 (8 mg) n = 1): 0 n (%)
- Best overall response: Non-CR/non-PD ([3]; DEP (QD) Level 2 (8 mg) n = 1): 0 n (%)
- Best overall response: PD ([3]; DEP (QD) Level 2 (8 mg) n = 1): 0 n (%)
- Best overall response: PR ([3]; DEP (QD) Level 2 (8 mg) n = 1): 0 n (%)
- Best overall response: SD ([3]; DEP (QD) Level 2 (8 mg) n = 1): 1 (100.0) n (%)
- DCR (CR + PR + SD + non-CR/non-PD) ([3]; DEP (QD) Level 2 (8 mg) n = 1): 1 (100.0) n (%)
- RR (CR + PR) ([3]; DEP (QD) Level 2 (8 mg) n = 1): 0 n (%)
- Best overall response: CR ([3]; DEP (QD) Level 3 (16 mg) n = 6): 0 n (%)
- Best overall response: NE ([3]; DEP (QD) Level 3 (16 mg) n = 6): 0 n (%)
- Best overall response: Non-CR/non-PD ([3]; DEP (QD) Level 3 (16 mg) n = 6): 0 n (%)
- Best overall response: PD ([3]; DEP (QD) Level 3 (16 mg) n = 6): 6 (100.0) n (%)
- Best overall response: PR ([3]; DEP (QD) Level 3 (16 mg) n = 6): 0 n (%)
- Best overall response: SD ([3]; DEP (QD) Level 3 (16 mg) n = 6): 0 n (%)
- DCR (CR + PR + SD + non-CR/non-PD) ([3]; DEP (QD) Level 3 (16 mg) n = 6): 0 n (%)
- RR (CR + PR) ([3]; DEP (QD) Level 3 (16 mg) n = 6): 0 n (%)
- Best overall response: CR ([3]; DEP (QD) Level 4 (24 mg) n = 3): 0 n (%)
- Best overall response: NE ([3]; DEP (QD) Level 4 (24 mg) n = 3): 0 n (%)
- Best overall response: Non-CR/non-PD ([3]; DEP (QD) Level 4 (24 mg) n = 3): 0 n (%)
- Best overall response: PD ([3]; DEP (QD) Level 4 (24 mg) n = 3): 2 (66.7) n (%)
- Best overall response: PR ([3]; DEP (QD) Level 4 (24 mg) n = 3): 0 n (%)
- Best overall response: SD ([3]; DEP (QD) Level 4 (24 mg) n = 3): 1 (33.3) n (%)
- DCR (CR + PR + SD + non-CR/non-PD) ([3]; DEP (QD) Level 4 (24 mg) n = 3): 1 (33.3) n (%)
- RR (CR + PR) ([3]; DEP (QD) Level 4 (24 mg) n = 3): 0 n (%)
- Best overall response: CR [3, 5]: 0 n (%)
- Best overall response: NE [3, 5]: 0 n (%)
- Best overall response: Non-CR/non-PD [3, 5]: 0 n (%)
- Best overall response: PD [3, 5]: 4 (66.7) n (%)
- Best overall response: PR [3, 5]: 0 n (%)
- Best overall response: SD [3, 5]: 2 (33.3) n (%)
- DCR (CR + PR + SD + non-CR/non-PD) [3, 5]: 2 (33.3) n (%)
- RR (CR + PR) [3, 5]: 0 n (%)
- Best overall response: CR [3, 6]: 0 n (%)
- Best overall response: NE [3, 6]: 0 n (%)
- Best overall response: Non-CR/non-PD [3, 6]: 0 n (%)
- Best overall response: PD [3, 6]: 4 (100.0) n (%)
- Best overall response: PR [3, 6]: 0 n (%)
- Best overall response: SD [3, 6]: 0 n (%)
- DCR (CR + PR + SD + non-CR/non-PD) [3, 6]: 0 n (%)
- RR (CR + PR) [3, 6]: 0 n (%)
- Patients with confirmed partial response ([3]; SAP): Four patients
- Best overall response: CR [3, 7]: 0 n (%)
- Best overall response: NE [3, 7]: 0 n (%)
- Best overall response: Non-CR/non-PD [3, 7]: 0 n (%)
- Best overall response: PD [3, 7]: 5 (31.3) n (%)
- Best overall response: PR [3, 7]: 1 (6.3) n (%)
- Best overall response: SD [3, 7]: 10 (62.5) n (%)
- DCR (CR + PR + SD + non-CR/non-PD) [3, 7]: 11 (68.8) n (%)
- RR (CR + PR) [3, 7]: 1 (6.3) n (%)
- Best overall response: CR [3, 8]: 0 n (%)
- Best overall response: NE [3, 8]: 0 n (%)
- Best overall response: Non-CR/non-PD [3, 8]: 0 n (%)
- Best overall response: PD [3, 8]: 1 (14.3) n (%)
- Best overall response: PR [3, 8]: 0 n (%)
- Best overall response: SD [3, 8]: 6 (85.7) n (%)
- DCR (CR + PR + SD + non-CR/non-PD) [3, 8]: 6 (85.7) n (%)
- RR (CR + PR) [3, 8]: 0 n (%)
- Best overall response: CR [3, 9]: 0 n (%)
- Best overall response: NE [3, 9]: 0 n (%)
- Best overall response: Non-CR/non-PD [3, 9]: 0 n (%)
- Best overall response: PD [3, 9]: 12 (60.0) n (%)
- Best overall response: PR [3, 9]: 3 (15.0) n (%)
- Best overall response: SD [3, 9]: 5 (25.0) n (%)
- DCR (CR + PR + SD + non-CR/non-PD) [3, 9]: 8 (40.0) n (%)
- RR (CR + PR) [3, 9]: 3 (15.0) n (%)
- Confirmed PR ([3]; SAP cohort 1 (endometrial cancer with PIK3CA mutation), 1 of 16 patients): 6.3%
- DCR ([3]; SAP cohort 2): 85.7%
- DCR ([3]; SAP cohort 3): 40.0%
- Confirmed PR ([3]; SAP cohort 3 (ovarian clear cell carcinoma), 3 of 20 patients): 15.0%
- DCR ([3]; SAP, cohort 1): 68.8%
- Best overall response: CR ([3]; Total N = 65): 0 n (%)
- Best overall response: NE ([3]; Total N = 65): 0 n (%)
- Best overall response: Non-CR/non-PD ([3]; Total N = 65): 0 n (%)
- Best overall response: PD ([3]; Total N = 65): 36 (55.4) n (%)
- Best overall response: PR ([3]; Total N = 65): 4 (6.2) n (%)
- Best overall response: SD ([3]; Total N = 65): 25 (38.5) n (%)
- DCR (CR + PR + SD + non-CR/non-PD) ([3]; Total N = 65): 29 (44.6) n (%)
- RR (CR + PR) ([3]; Total N = 65): 4 (6.2) n (%)
- DCR ([3]; dose level 2 in the DEP): 100%
- Anti-proliferative activity [4]: strong anti-proliferative activity
- Antitumor activity (KPL-4): demonstrated single-agent antitumor activity
